Experiment: xn = mol fraction of the nth substance listed
Conditions: 102 kPa, Liquid; for speed of sound: Frequency=5 MHz, Single path-length method; for mass density: Vibrating tube method

CCCCC(=O)[O-].C[NH2+]CCO [2-hydroxy-N-methylethanaminium pentanoate] + O
Conditions | mass density [kg/m3] | speed of sound [m/s]
298.15 K, x1 = 0.0199 | 1013 | 1645.3
298.15 K, x1 = 0.05 | 1026 | 1705.8
298.15 K, x1 = 0.0988 | 1027.5 | 1670.2
298.15 K, x1 = 0.2023 | 1029.9 | 1644.9
298.15 K, x1 = 0.3 | 1028.5 | 1633.5
298.15 K, x1 = 0.4053 | 1025.2 | 1609.2
298.15 K, x1 = 0.5003 | 1021 | 1583.7
298.15 K, x1 = 0.5993 | 1019.1 | 1571.3
298.15 K, x1 = 0.8061 | 1013.3 | 1541.8
298.15 K, x1 = 1 | 1009.3 | 1516.3
303.15 K, x1 = 0.0199 | 1009.6 | 1644.5
303.15 K, x1 = 0.05 | 1022.7 | 1698.6
303.15 K, x1 = 0.0988 | 1024.2 | 1659.8
303.15 K, x1 = 0.2023 | 1026.8 | 1631.5
303.15 K, x1 = 0.3 | 1025.4 | 1618.8
303.15 K, x1 = 0.4053 | 1022.1 | 1594.7
303.15 K, x1 = 0.5003 | 1017.8 | 1568.6
303.15 K, x1 = 0.5993 | 1015.9 | 1556.3
303.15 K, x1 = 0.8061 | 1010.1 | 1526.5
303.15 K, x1 = 1 | 1006 | 1503.7
308.15 K, x1 = 0.0199 | 1006.1 | 1643.7
308.15 K, x1 = 0.05 | 1019.3 | 1691.5
308.15 K, x1 = 0.0988 | 1020.9 | 1649.5
308.15 K, x1 = 0.2023 | 1023.7 | 1618.1
308.15 K, x1 = 0.3 | 1022.3 | 1604.2
308.15 K, x1 = 0.4053 | 1018.9 | 1580.2
308.15 K, x1 = 0.5003 | 1014.6 | 1553.5
308.15 K, x1 = 0.5993 | 1012.7 | 1541.4
308.15 K, x1 = 0.8061 | 1006.9 | 1511.2
308.15 K, x1 = 1 | 1002.8 | 1486.5
313.15 K, x1 = 0.0199 | 1002.7 | 1642.9
313.15 K, x1 = 0.05 | 1015.9 | 1684.3
313.15 K, x1 = 0.0988 | 1017.7 | 1639.1
313.15 K, x1 = 0.2023 | 1020.7 | 1604.8
313.15 K, x1 = 0.3 | 1019.2 | 1589.6
313.15 K, x1 = 0.4053 | 1015.8 | 1565.7
313.15 K, x1 = 0.5003 | 1011.5 | 1538.4
313.15 K, x1 = 0.5993 | 1009.5 | 1526.5
313.15 K, x1 = 0.8061 | 1003.6 | 1495.9
313.15 K, x1 = 1 | 999.6 | 1471
318.15 K, x1 = 0.0199 | 999.3 | 1642.2
318.15 K, x1 = 0.05 | 1012.6 | 1677.2
318.15 K, x1 = 0.0988 | 1014.4 | 1628.8
318.15 K, x1 = 0.2023 | 1017.6 | 1591.4
318.15 K, x1 = 0.3 | 1016.1 | 1575
318.15 K, x1 = 0.4053 | 1012.7 | 1551.2
318.15 K, x1 = 0.5003 | 1008.3 | 1523.3
318.15 K, x1 = 0.5993 | 1006.3 | 1511.5
318.15 K, x1 = 0.8061 | 1000.4 | 1480.6
318.15 K, x1 = 1 | 996.3 | 1457
323.15 K, x1 = 0.0199 | 995.8 | 1641.4
323.15 K, x1 = 0.05 | 1009.2 | 1670
323.15 K, x1 = 0.0988 | 1011.1 | 1618.5
323.15 K, x1 = 0.2023 | 1014.6 | 1578
323.15 K, x1 = 0.3 | 1012.9 | 1560.4
323.15 K, x1 = 0.4053 | 1009.5 | 1536.7
323.15 K, x1 = 0.5003 | 1005.1 | 1508.2
323.15 K, x1 = 0.5993 | 1003.1 | 1496.6
323.15 K, x1 = 0.8061 | 997.2 | 1465.3
323.15 K, x1 = 1 | 993.1 | 1440
328.15 K, x1 = 0.0199 | 992.4 | 1640.6
328.15 K, x1 = 0.05 | 1005.9 | 1662.8
328.15 K, x1 = 0.0988 | 1007.8 | 1608.1
328.15 K, x1 = 0.2023 | 1011.5 | 1564.6
328.15 K, x1 = 0.3 | 1009.8 | 1545.7
328.15 K, x1 = 0.4053 | 1006.4 | 1522.2
328.15 K, x1 = 0.5003 | 1002 | 1493.1
328.15 K, x1 = 0.5993 | 999.9 | 1481.7
328.15 K, x1 = 0.8061 | 993.9 | 1450
328.15 K, x1 = 1 | 989.9 | 1424.6
333.15 K, x1 = 0.0199 | 988.9 | 1639.8
333.15 K, x1 = 0.05 | 1002.5 | 1655.7
333.15 K, x1 = 0.0988 | 1004.5 | 1597.8
333.15 K, x1 = 0.2023 | 1008.5 | 1551.2
333.15 K, x1 = 0.3 | 1006.7 | 1531.1
333.15 K, x1 = 0.4053 | 1003.2 | 1507.7
333.15 K, x1 = 0.5003 | 998.8 | 1478.1
333.15 K, x1 = 0.5993 | 996.7 | 1466.7
333.15 K, x1 = 0.8061 | 990.7 | 1434.6
333.15 K, x1 = 1 | 986.7 | 1412.8

CCCC(=O)[O-].C[NH2+]CCO [N-methyl-2-hydroxyethylammonium butanoate] + O
Conditions | mass density [kg/m3] | speed of sound [m/s]
298.15 K, x1 = 0.0199 | 1016.9 | 1645.6
298.15 K, x1 = 0.0497 | 1035 | 1762.6
298.15 K, x1 = 0.1005 | 1040.8 | 1773.4
298.15 K, x1 = 0.196 | 1050.5 | 1739.5
298.15 K, x1 = 0.3008 | 1052.5 | 1732
298.15 K, x1 = 0.4005 | 1049.1 | 1693.9
298.15 K, x1 = 0.509 | 1046.8 | 1674.1
298.15 K, x1 = 0.5968 | 1045 | 1659.6
298.15 K, x1 = 0.8069 | 1041.3 | 1630.4
298.15 K, x1 = 1 | 1035.3 | 1562.9
303.15 K, x1 = 0.0199 | 1013.1 | 1646.1
303.15 K, x1 = 0.0497 | 1032.4 | 1755.1
303.15 K, x1 = 0.1005 | 1037.9 | 1763.6
303.15 K, x1 = 0.196 | 1047.4 | 1725.4
303.15 K, x1 = 0.3008 | 1049.4 | 1717
303.15 K, x1 = 0.4005 | 1046 | 1678.1
303.15 K, x1 = 0.509 | 1043.6 | 1658.3
303.15 K, x1 = 0.5968 | 1041.7 | 1643.9
303.15 K, x1 = 0.8069 | 1038 | 1614.5
303.15 K, x1 = 1 | 1031.9 | 1548
308.15 K, x1 = 0.0199 | 1009.2 | 1646.7
308.15 K, x1 = 0.0497 | 1029.8 | 1747.6
308.15 K, x1 = 0.1005 | 1035 | 1753.8
308.15 K, x1 = 0.196 | 1044.4 | 1711.3
308.15 K, x1 = 0.3008 | 1046.3 | 1701.9
308.15 K, x1 = 0.4005 | 1042.8 | 1662.3
308.15 K, x1 = 0.509 | 1040.4 | 1642.4
308.15 K, x1 = 0.5968 | 1038.5 | 1628.1
308.15 K, x1 = 0.8069 | 1034.7 | 1598.6
308.15 K, x1 = 1 | 1028.6 | 1529.7
313.15 K, x1 = 0.0199 | 1005.3 | 1647.3
313.15 K, x1 = 0.0497 | 1027.2 | 1740
313.15 K, x1 = 0.1005 | 1032 | 1744
313.15 K, x1 = 0.196 | 1041.3 | 1697.2
313.15 K, x1 = 0.3008 | 1043.2 | 1686.8
313.15 K, x1 = 0.4005 | 1039.6 | 1646.5
313.15 K, x1 = 0.509 | 1037.2 | 1626.6
313.15 K, x1 = 0.5968 | 1035.3 | 1612.4
313.15 K, x1 = 0.8069 | 1031.4 | 1582.7
313.15 K, x1 = 1 | 1025.2 | 1511.9
318.15 K, x1 = 0.0199 | 1001.5 | 1647.8
318.15 K, x1 = 0.0497 | 1024.6 | 1732.5
318.15 K, x1 = 0.1005 | 1029.1 | 1734.2
318.15 K, x1 = 0.196 | 1038.3 | 1683.1
318.15 K, x1 = 0.3008 | 1040.1 | 1671.7
318.15 K, x1 = 0.4005 | 1036.4 | 1630.6
318.15 K, x1 = 0.509 | 1034 | 1610.7
318.15 K, x1 = 0.5968 | 1032.1 | 1596.6
318.15 K, x1 = 0.8069 | 1028.1 | 1566.8
318.15 K, x1 = 1 | 1021.9 | 1499.4
323.15 K, x1 = 0.0199 | 997.6 | 1648.4
323.15 K, x1 = 0.0497 | 1022 | 1725
323.15 K, x1 = 0.1005 | 1026.2 | 1724.5
323.15 K, x1 = 0.196 | 1035.2 | 1669
323.15 K, x1 = 0.3008 | 1036.9 | 1656.6
323.15 K, x1 = 0.4005 | 1033.3 | 1614.8
323.15 K, x1 = 0.509 | 1030.9 | 1594.8
323.15 K, x1 = 0.5968 | 1028.9 | 1580.8
323.15 K, x1 = 0.8069 | 1024.9 | 1550.9
323.15 K, x1 = 1 | 1018.5 | 1481.3
328.15 K, x1 = 0.0199 | 993.7 | 1648.9
328.15 K, x1 = 0.0497 | 1019.4 | 1717.5
328.15 K, x1 = 0.1005 | 1023.2 | 1714.7
328.15 K, x1 = 0.196 | 1032.2 | 1654.9
328.15 K, x1 = 0.3008 | 1033.8 | 1641.6
328.15 K, x1 = 0.4005 | 1030.1 | 1599
328.15 K, x1 = 0.509 | 1027.7 | 1579
328.15 K, x1 = 0.5968 | 1025.6 | 1565.1
328.15 K, x1 = 0.8069 | 1021.6 | 1535
328.15 K, x1 = 1 | 1015.2 | 1467.2
333.15 K, x1 = 0.0199 | 989.9 | 1649.5
333.15 K, x1 = 0.0497 | 1016.8 | 1709.9
333.15 K, x1 = 0.1005 | 1020.3 | 1704.9
333.15 K, x1 = 0.196 | 1029.1 | 1640.8
333.15 K, x1 = 0.3008 | 1030.7 | 1626.5
333.15 K, x1 = 0.4005 | 1026.9 | 1583.1
333.15 K, x1 = 0.509 | 1024.5 | 1563.1
333.15 K, x1 = 0.5968 | 1022.4 | 1549.3
333.15 K, x1 = 0.8069 | 1018.3 | 1519.1
333.15 K, x1 = 1 | 1011.9 | 1451.2

Source: the NIST ThermoML archive (doi:10.1016/j.jct.2016.01.028)
